{"source": "patent US6579899B1", "about": "“Composition for treatment of stress” (Massachusetts Institute of Technology, priority 1998, dated 2003)", "key": {"obese, stressed patients [1]": {"test_system": "obese, stressed patients", "test": "questionnaire rating tendency to eat in response to emotional and stressful triggers", "type": "in vivo, human", "excerpt": "(§1) A subgroup of obese individuals is identified, which individuals describe themselves as being unable to control their eating and who attempt to continue on a weight-reducing diet when experiencing emotional distress. […]\n(§2) Objective measurements of emotional distress are made in some patients using the CES-D (Center for […] Depression Form) test, which measures current levels of emotional distress (Radloff, et al., The CES-D Scale: A Self Report Depression Scale for Research in the General Population Applied Psychological Measurement 1: 385-401, 1977); and the POMS (Profile of Mood States test, that assesses tension, depression, anger and confusion (McNair, et al., Profile of Mood States Manual;San Diego: Educational and Industrial Testing Service, 1971); both of these references are hereby incorporated by reference in their entirety. These tests are also given monthly during the treatment period. At the same time, patients also complete questionnaires that ask the patients to rate their appetite and hunger, and also to rate their tendency to eat in response to a variety of emotional and stressful triggers. The patients are also weighed monthly."}, "[2]": {"test": "body weight in four month weight loss program", "type": "in vivo, human", "excerpt": "as §1, §2"}, "rats": {"test_system": "rats", "conditions": "cited from earlier work"}, "obese, stressed patients [3]": {"test_system": "obese, stressed patients", "test": "POMS (Profile of Mood States) test", "type": "in vivo, human", "conditions": "30 mg/day, during the study period, baseline 24", "method": "A subgroup of obese individuals is identified, which individuals describe themselves as being unable to control their eating and who attempt to continue on a weight-reducing diet when experiencing emotional distress. These patients are treated for four months by enrolling them in a weight loss program which includes the administration of dexfenfluramine at 30 mg/day and which involves adherence to a reduced-calorie meal plan.\nas §2"}, "obese, stressed patients [4]": {"test_system": "obese, stressed patients", "test": "CES-D test of current levels of emotional distress in patients", "type": "in vivo, human", "excerpt": "as §1, §2"}, "obese, stressed patients [5]": {"test_system": "obese, stressed patients", "test": "questionnaire rating appetite and hunger", "type": "in vivo, human", "conditions": "30 mg/day, during the treatment period, initial score 10.5", "excerpt": "as §1, §2"}}, "note": "Entries after “also recorded” stand apart in the source; their conditions may differ."}
{"smiles": "CCN[C@@H](C)Cc1cccc(C(F)(F)F)c1", "note": "[dexfenfluramine]", "values": [{"measurement": "score on the emotional triggers to overeating report", "setting": "obese, stressed patients [1]; 30 mg/day, end of the treatment period, from 23.4±9.8, ± standard deviations", "result": "8.6±8.5"}, {"measurement": "Emotional Triggers", "setting": "obese, stressed patients [1]; patient eleven, 30 mg/day, Month 4, baseline 30", "result": 7}, {"measurement": "Emotional Triggers", "setting": "obese, stressed patients [1]; patient six, 30 mg/day, Month 4, baseline 23", "result": 4}, {"measurement": "Emotional Triggers", "setting": "obese, stressed patients [1]; patient ten, 75 rising to 150 mg/day, Month 4, baseline 14", "result": 2}, {"measurement": "Emotional Triggers", "setting": "obese, stressed patients [1]; patient three, 50 rising to 150 mg/day, Month 4, baseline 34", "result": 24}, {"measurement": "Emotional Triggers", "setting": "obese, stressed patients [1]; patient twelve, 75 then 100 mg/day, Month 4, baseline 25", "result": 3}, {"measurement": "ability of stressed overeaters to lose weight", "setting": "[2]; 30 mg/day, four months, reduced-calorie meal plan", "result": "enhance the ability of stressed overeaters to lose weight; also recorded: promotes the ability to control food intake and to lose weight"}, {"measurement": "weight at the end of 4 months", "setting": "[2]; patient eleven, 30 mg/day, starting weight 90.0 kg", "result": 82.6, "unit": "kg"}, {"measurement": "weight at the end of 4 months", "setting": "[2]; patient eleven, 30 mg/day, starting weight 198 pounds", "result": 181.7, "unit": "pounds"}, {"measurement": "weight after 4 months", "setting": "[2]; patient six, 30 mg/day, starting weight 98.2 kg", "result": 93.4, "unit": "kg"}, {"measurement": "weight after 4 months", "setting": "[2]; patient six, 30 mg/day, starting weight 216 pounds", "result": 205.5, "unit": "pounds"}, {"measurement": "weight after 4 months", "setting": "[2]; patient ten, 75 rising to 150 mg/day, starting weight 83.6 kg", "result": 76.8, "unit": "kg"}, {"measurement": "weight after 4 months", "setting": "[2]; patient ten, 75 rising to 150 mg/day, starting weight 184 pounds", "result": 169, "unit": "pounds"}, {"measurement": "weight after 4 months", "setting": "[2]; patient three, 50 rising to 150 mg/day, starting weight 137.3 kg", "result": 130, "unit": "kg"}, {"measurement": "weight after 4 months", "setting": "[2]; patient three, 50 rising to 150 mg/day, starting weight 302 pounds", "result": 286, "unit": "pounds"}, {"measurement": "weight at the end of 4 months", "setting": "[2]; patient twelve, 75 then 100 mg/day, starting weight 90.0 kg", "result": 82.6, "unit": "kg"}, {"measurement": "weight at the end of 4 months", "setting": "[2]; patient twelve, 75 then 100 mg/day, starting weight 198 pounds", "result": 182, "unit": "pounds"}, {"measurement": "tail pressure/tail pinch-induced eating", "setting": "rats; Rowland et al.", "result": "decrease the eating behavior"}, {"measurement": "DI50, inhibition of tail pressure-induced eating", "setting": "rats; reported by Garattini, quoted from Rowland et al.", "result": 0.6, "unit": "mg/kg"}, {"measurement": "summed Tension, Depression, Anger and Confusion scores on the POMS test", "setting": "obese, stressed patients [3]", "result": 16.8}, {"measurement": "lowered CES-D score", "setting": "obese, stressed patients [4]; 30 mg/day, fifth of six women, from 15", "result": 7}, {"measurement": "lowered CES-D score", "setting": "obese, stressed patients [4]; 30 mg/day, first of six women with above normal score at start, from 34", "result": 7}, {"measurement": "lowered CES-D score", "setting": "obese, stressed patients [4]; 30 mg/day, fourth of six women, from 19", "result": 5}, {"measurement": "lowered CES-D score", "setting": "obese, stressed patients [4]; 30 mg/day, second of six women, from 37", "result": 8}, {"measurement": "lowered CES-D score", "setting": "obese, stressed patients [4]; 30 mg/day, sixth of six women, from 15", "result": 3}, {"measurement": "indicators of stress", "setting": "obese, stressed patients [4]; 30 mg/day, stress-induced overeaters", "result": "reduces the indicators of stress"}, {"measurement": "lowered CES-D score", "setting": "obese, stressed patients [4]; 30 mg/day, third of six women, from 22", "result": 9}, {"measurement": "Mood Scores CES-D", "setting": "obese, stressed patients [4]; patient eleven, 30 mg/day, Month 4, baseline 19", "result": 4}, {"measurement": "Mood Scores CES-D", "setting": "obese, stressed patients [4]; patient six, 30 mg/day, Month 4, baseline 5", "result": 1}, {"measurement": "Mood Scores CES-D", "setting": "obese, stressed patients [4]; patient ten, 75 rising to 150 mg/day, Month 4, baseline 8", "result": 2}, {"measurement": "Mood Scores CES-D", "setting": "obese, stressed patients [4]; patient three, 50 rising to 150 mg/day, Month 4, baseline 23", "result": 17}, {"measurement": "Mood Scores CES-D", "setting": "obese, stressed patients [4]; patient twelve, 75 then 100 mg/day, Month 4, baseline 29", "result": 18}, {"measurement": "score on the appetite and hunger scale", "setting": "obese, stressed patients [5]", "result": 5.0}]}
